Consider 38 compounds from the supplement of paper PMC11003180.

Structures are written as SMILES.

Holding throughout (assay): drug sensitivity score (DSS) from 5-dose viability curve (DSS (area-based score, 0 = no response)); higher = more sensitive (stronger viability inhibition); extreme values may be limits of the assay
Test [1] relates to MDCK wild-type - doxycycline. To be noted: doxycycline: none; 72 h. The method, boiled down:
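Viability of parental MDCK cells cultured without doxycycline was measured by CellTiter-Glo luminescence and scaled per plate between vehicle and positive controls. The cells had been exposed for 72 h to an oncology library of 528 drugs at five doses (1-10,000 nM). Drug sensitivity scores were calculated from dose-response curve fits in the Breeze pipeline.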

Test [2] has as its system MDCK p60AmotL2-inducible + doxycycline (p60AmotL2 expressing). The following applies: doxycycline: 10 ng/mL; 72 h. The method, boiled down:
(§1)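 Parental MDCK cells and MDCK cells with a doxycycline-inducible transgene were both grown with doxycycline at 10 ng/mL in the medium before plating, then dispensed at 2000 cells/well into 384-well plates pre-spotted with an oncology library of 528 drugs at five doses (1-10,000 nM). After 72 h at 37 °C, CellTiter-Glo luminescence was recorded and scaled on each plate between vehicle and positive controls. This scaled signal served as the viability readout, and drug sensitivity scores were derived from dose-response curve fits in the Breeze pipeline.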

The test system of test [3] is MDCK wild-type + doxycycline. To be noted: doxycycline: 10 ng/mL; 72 h. The method, boiled down:
as §1

Regarding `CC(C)(C)C[C@@H]1N[C@@H](C(=O)N[C@H]2CC[C@H](O)CC2)[C@H](c2cccc(Cl)c2F)[C@]12C(=O)Nc1cc(Cl)ccc12`, the drug sensitivity score in test [1] was found to be 2.9; in test [2], 7.2; in test [3], 4.7.

As for `CCOc1ccn(-c2ccc(F)cc2)c(=O)c1C(=O)Nc1ccc(Oc2ccnc(N)c2Cl)c(F)c1`, the drug sensitivity score in test [1], in test [2] and in test [3] was 0 each time.

Take `CC[C@@H]1[C@H](F)C(=O)N[C@@H]1COc1nccc2cc(C(N)=O)c(OC)cc12`: the drug sensitivity score in test [1] was 0; in test [2], 0.2; in test [3], 0.8.

Turning to `CCn1c(C(=O)N(C2CC2)C2CC2)cc2c3c(ncn3C)c(Nc3cc(C)n(C)n3)nc21`, the drug sensitivity score in test [1], in test [2] and in test [3] was 0 in each case.

As for `CN(C)CC#Cc1ccc(OCCCc2sc(N3CCc4cccc(C(=O)Nc5nc6ccccc6s5)c4C3)nc2C(=O)O)c(F)c1`, the drug sensitivity score in test [1], in test [2] and in test [3] was 0 each time.

Consider `CN1CCN(C2CCC(n3cc(-c4ccc(Oc5ccccc5)cc4)c4c(N)ncnc43)CC2)CC1` (centres undefined), for which the drug sensitivity score in test [1] was 7; in test [2], 14; in test [3], 9.4.

On to `CNC(=O)c1ccc(C)c(-n2c(C)cc(OCc3ccc(F)cc3F)c(Br)c2=O)c1`, for which the drug sensitivity score in test [1], in test [2] and in test [3] was 0 throughout.

Regarding `CNS(=O)(=O)Nc1nccc(Cc2c(C)c3ccc(Oc4ncccn4)cc3oc2=O)c1F`, the results for the drug sensitivity score in test [1], in test [2] and in test [3] were 0, 2.3 and 0.5, respectively.

Take `C[C@@]1(C(=O)Nc2ccc(F)nc2)CCCN1c1nc(Nc2cc(C3CC3)n[nH]2)c2cccn2n1`: the drug sensitivity score in test [1] amounted to 0; in test [2] it was 12.6; in test [3], 8.5.

Consider `C[C@H]1C[C@@H](n2c(Nc3ccc(OC(F)(F)F)cc3)nc3cc(CCC(=O)O)ccc32)CC(C)(C)C1`, for which the drug sensitivity score in test [1], in test [2] and in test [3] was 0 in each case.

Consider `Cc1c(-c2c(-c3ccc(F)o3)sc3ncnc(O[C@H](Cc4ccccc4OCc4ccnn4CC(F)(F)F)C(=O)O)c23)ccc(OCCN2CCN(C)CC2)c1Cl`, for which the drug sensitivity score in test [1], in test [2] and in test [3] was 0 in each case.

On to `Cc1c(-c2ccc(N3CCc4cccc(C(=O)Nc5nc6ccccc6s5)c4C3)nc2C(=O)O)cnn1CC12CC3CC(CC(C3)C1)C2`, for which the drug sensitivity score in test [1], in test [2] and in test [3] was 0 throughout.

For `Cc1ccc(C(=O)N(CCCN)[C@@H](c2oc3cc(Cl)ccc3c(=O)c2Cc2ccccc2)C(C)C)cc1`, the drug sensitivity score was 15.3 in test [1], 8.8 in test [2] and 5.8 in test [3].

For `Cc1nn(C)c(COc2ccc(N3CCN(S(=O)(=O)N(C)C)CC3)cc2)c1-c1cccc2c(CCCOc3cccc4ccccc34)c(C(=O)O)n(CCN3CCOCC3)c12`, the drug sensitivity score in test [1] worked out at 5.1; in test [2], 5.3; in test [3], 5.3.

Regarding `N#Cc1ccc(COC[C@H]2O[C@@H](n3c(NCc4ccc(Cl)c(Cl)c4)nc4c(N)ncnc43)[C@H](O)[C@@H]2O)cc1`, the drug sensitivity score in test [1], in test [2] and in test [3] was 0 throughout.

In the case of `NC[C@@](O)(c1ccc(Cl)cc1)c1ccc(-c2cn[nH]c2)cc1`, the drug sensitivity score in test [1], in test [2] and in test [3] was 0 in each case.

`Nc1nccc(-c2c(-c3ccc(F)cc3)ncn2C2CCCCC2)n1`: the drug sensitivity score in test [1] stood at 0.7; in test [2] it was 2.3; in test [3] it was 0.5.

Turning to `O=C(Nc1ccc2[nH]nc(-c3ccncc3)c2c1)[C@@H]1CCN(CC(=O)N2CCN(c3ccc(-c4ncccn4)cc3)CC2)C1`, the drug sensitivity score in test [1] came out at 3.5; in test [2], 10.7; in test [3] it was 6.7.

Take `O=c1[nH]c(C2CCCN2)nc2c1oc1ccc(Cl)cc12` (centres undefined): the drug sensitivity score in test [1], in test [2] and in test [3] was 0 each time.

With `COc1ccc(C[C@H](NC(=O)[C@H](C)NC(=O)CN2CCOCC2)C(=O)N[C@@H](Cc2ccccc2)C(=O)C2(C)CO2)cc1` (stereo in doubt) [ONX-0914], the values for the drug sensitivity score in test [1], in test [2] and in test [3] were 8.6, 12.5 and 10.4, respectively.

For the compound `Cn1cc(C[C@@H](N)C(=O)O)c2ccccc21` [1-methyl-D-tryptophan], the drug sensitivity score in test [1], in test [2] and in test [3] was 0 each time.

Regarding `CC/C(=C(\c1ccc(O)cc1)c1ccc(OCCN(C)C)cc1)c1ccccc1` [4-hydroxytamoxifen], the drug sensitivity score was determined as 1.2 in test [1], 5.7 in test [2] and 4.3 in test [3].

As for `Nc1ncnc2c1nc(N)n2[C@@H]1O[C@H](CO)[C@@H](O)[C@H]1O` [8-amino-adenosine], the drug sensitivity score in test [1] was 18.2; in test [2] it was 19.8; in test [3] it was 18.2.

For the compound `Nc1ncnc2c1nc(Cl)n2[C@@H]1O[C@H](CO)[C@@H](O)[C@H]1O` [8-chloro-adenosine], the drug sensitivity score in test [1] was found to be 6.7; in test [2] it was 13.6; in test [3] it was 8.3.

For `COc1cc2c(cc1OCCCN1CCCC1)N=C(N)C21CCC1` [A-366], the drug sensitivity score in test [1], in test [2] and in test [3] was 0 each time.

As to `COc1ccc(S(=O)(=O)Nc2cccnc2Nc2ccc(O)cc2)cc1` [ABT-751], the drug sensitivity score in test [1] was found to be 15.3; in test [2], 16; in test [3], 16.6.

As to `C[C@H](Nc1ncnc2[nH]cnc12)c1cc2ccc(F)cc2nc1-c1ccccn1` [AMG319], the drug sensitivity score in test [1], in test [2] and in test [3] was 0 throughout.

Take `CC(C)[C@@H](CS(=O)(=O)C(C)C)N1C(=O)[C@@](C)(CC(=O)O)C[C@H](c2cccc(Cl)c2)[C@H]1c1ccc(Cl)cc1` [AMG-232]: the drug sensitivity score was determined as 5.9 in test [1], 9.8 in test [2] and 7.2 in test [3].

For `COCCOc1cnc2ccn([C@H](C)c3nnc4c(F)cc(-c5cnn(C)c5)cn34)c(=O)c2c1` [AMG-337], the drug sensitivity score in test [1], in test [2] and in test [3] was 0 throughout.

For `CC1CCC(n2c3cnccc3c3cnc(Nc4ccc5c(n4)CCN(C(=O)CO)C5)nc32)CC1` (centres undefined) [AMG-925], the drug sensitivity score in test [1] was 0; in test [2] it was 1.3; in test [3], 0.

On to `COCC1(CO)C(=O)C2CCN1CC2` (centres undefined) [APR-246], for which the drug sensitivity score in test [1], in test [2] and in test [3] was 0 throughout.

Consider `CC(C)[C@H](C(=O)Nc1ccc(C(=O)NO)cc1)c1ccccc1` [AR-42], for which the drug sensitivity score stood at 10.4 in test [1], 14 in test [2] and 12.4 in test [3].

As to `Cc1sc2c(c1C)C(c1ccc(Cl)cc1)=N[C@@H](CC(=O)Nc1ccc(OCCOCCOCCOCCNc3cccc4c3C(=O)N(C3CCC(=O)NC3=O)C4=O)cc1)c1nnc(C)n1-2` (some centres undefined) [ARV-825], the results for the drug sensitivity score in test [1], in test [2] and in test [3] were 5.5, 11.2 and 7.3, respectively.

Consider `COc1cc(N2CCC(N3CCN(C)CC3)CC2)ccc1Nc1ncnc(Nc2ccccc2S(=O)(=O)C(C)C)n1` [ASP3026], for which the drug sensitivity score in test [1] was 6.3; in test [2], 9.5; in test [3] it was 6.5.

In the case of `O=C(NC1CCNCC1)c1n[nH]cc1NC(=O)c1c(Cl)cccc1Cl` [AT7519], the drug sensitivity score in test [1] was found to be 8.2; in test [2], 9.1; in test [3], 8.9.

As to `O=C(Nc1c[nH]nc1-c1nc2ccc(CN3CCOCC3)cc2[nH]1)NC1CC1` [AT9283], the drug sensitivity score came to 0 in test [1], 6.5 in test [2] and 2 in test [3].

In the case of `CN[C@@H](C)C(=O)N[C@H]1CN(C(=O)CC(C)C)CC[C@H]2CC[C@@H](C(=O)NC(c3ccccc3)c3ccccc3)N2C1=O` [AT-406], the drug sensitivity score in test [1] was determined as 0; in test [2], 0; in test [3], 0.1.

For the compound `CC[C@H](CC#N)OC(=O)N[C@@H](C)c1cccc(NC(=O)Nc2ccc(-c3cnco3)c(OC)c2)c1` [AVN944], the drug sensitivity score is 11.1 in test [1], 18.5 in test [2] and 12.6 in test [3].
